Measurements: patent US7138361B2, “Herbicidal heterocycles” (E. I. du Pont de Nemours and Company, priority 2000, dated 2006)

Columns and labels:
Assay type in all cases: in vivo
Sunflower = test: Test C preemergence; conditions: Rate 250 g/ha, scale 0 to 100, 0 no effect, 100 complete control
[1] = system: duck salad (Heteranthera limosa); test: Test C flooded paddy test; conditions: for Ducksalad plant response rating: Flooded Paddy, scale 0 to 100, 0 no effect, 100 complete control; for Plant response rating, Ducksalad: flooded paddy test, scale 0 to 100 (0 no effect, 100 complete control)
Method in brief: (§1)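 Plants were grown to the 2-leaf stage under flooded paddy conditions and treated. They were then kept in a greenhouse for 12 to 14 days and visually rated against untreated controls on a 0–100 scale, where 0 is no effect and 100 is complete control.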

rice (Oryza saliva) = test: Test C flooded paddy test; conditions: for Rice plant response rating: Flooded Paddy, scale 0 to 100, 0 no effect, 100 complete control; for Plant response rating, Rice: flooded paddy test, scale 0 to 100 (0 no effect, 100 complete control)
Method in brief: as §1

[2] = system: smallflower flatsedge (Cyperus difformis); test: Test C flooded paddy test; conditions: for Flatsedge plant response rating: Flooded Paddy, scale 0 to 100, 0 no effect, 100 complete control; for Plant response rating, Flatsedge: flooded paddy test, scale 0 to 100 (0 no effect, 100 complete control)
Method in brief: as §1

[3] = system: barnyardgrass (Echinochloa crus-galli); test: Test C flooded paddy test; conditions: for Barnyardgrass plant response rating: Flooded Paddy, scale 0 to 100, 0 no effect, 100 complete control; for Plant response rating, Barnyardgrass: flooded paddy test, scale 0 to 100 (0 no effect, 100 complete control)
Method in brief: as §1

wild oat (Avena fatua) = test: Test B postemergence
Method in brief: (§2)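 Pre: seeded pots sprayed, chemical in non-phytotoxic solvent/surfactant mix. Post: plants 2–18 cm, 1–4 leaf, same formulation. Greenhouse 13–15 d; visual % control vs untreated, 0–100 scale.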

corn (Zea mays) [4] = test: Test B postemergence
Method in brief: as §2

[5] = system: wheat (Triticum aestivum); test: Test B postemergence
Method in brief: as §2

[6] = system: barnyardgrass (Echinochloa crus-galli); test: Test B postemergence
Method in brief: as §2

soybean (Glycine max) = test: Test C preemergence
Method in brief: (§3)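 Preemergence: seeds sown then treated. Postemergence: plants 2–18 cm, 1- to 4-leaf. Both with surfactant-containing solvent formulation; visual injury scored 0–100 after 12–14 d.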

corn (Zea mays) [7] = test: Test C preemergence
Method in brief: as §3

[8] = system: yellow nutsedge (Cyperus esculentus); test: Test C preemergence
Method in brief: as §3

[9] = system: lambsquarters (Chenopodium album); test: Test C preemergence
Method in brief: as §3

[10] = system: pigweed (Amaranthus retroflexus); test: Test C preemergence
Method in brief: as §3

[11] = system: johnsongrass (Sorghum halepense); test: Test C preemergence
Method in brief: as §3

[12] = system: woolly cupgrass (Eriochloa villosa); test: Test C preemergence
Method in brief: as §3

kochia (Kochia scoparia) = test: Test C preemergence
Method in brief: as §3

Nightshade = test: Test C preemergence
[13] = Rate 62 g/ha, scale 0 to 100, 0 no effect, 100 complete control
[14] = Rate 250 g/ha, scale 0 (no effect) to 100 (complete control), 13 to 15 days
[15] = Rate 500 g/ha, scale 0 to 100, 0 is no effect, 100 is complete control, 13 to 15 days
[16] = Rate 125 g/ha, scale 0 (no effect) to 100 (complete control), 13 to 15 days
[17] = Rate 125 g/ha, scale 0 to 100, 0 no effect, 100 complete control
[18] = preemergence, Rate 31 g/ha, scale 0 to 100
[19] = preemergence, Rate 62 g/ha, scale 0 to 100
[20] = preemergence, Rate 250 g/ha, scale 0 to 100, 0 no effect, 100 complete control
[21] = Rate 250 g/ha, scale 0 to 100, 0 no effect, 100 complete control
[22] = preemergence, Rate 250 g/ha, visual evaluation after 12 to 14 days

Cc1ccc(N2CCC(n3ccc(C(C)(C)C)n3)C2=O)cc1OCCCl (stereo not shown) [Compound 109]
70: Ducksalad plant response rating ([1]; Rate 250 g/ha) | Barnyardgrass plant response rating ([3]; Rate 250 g/ha) | Plant response rating, Pigweed [10, 17]
80: Flatsedge plant response rating ([2]; Rate 250 g/ha) | Plant response rating, Soybean (soybean (Glycine max); [19]) | Plant response rating, Pigweed [10, 20]
100: Flatsedge plant response rating ([2]; Rate 500 g/ha) | Plant response rating, Lambsquarters [9, 17] | Plant response rating, Lambsquarters [9, 18] | Plant response rating, Lambsquarters [9, 19] | Plant response rating, Lambsquarters [9, 20] | Plant response rating, Cupgrass, Woolly [12, 20] | Plant response rating, Kochia (kochia (Kochia scoparia); [17]) | Plant response rating, Kochia (kochia (Kochia scoparia); [19]) | Plant response rating, Kochia (kochia (Kochia scoparia); [20]) | Plant response rating, Nightshade (Nightshade; [17]) | Plant response rating, Nightshade (Nightshade; [21])
20: Rice plant response rating (rice (Oryza saliva); Rate 500 g/ha) | Plant response rating, Soybean (soybean (Glycine max); [18]) | Plant response rating, Pigweed [10, 18] | Plant response rating, Pigweed [10, 19]
50: Plant response rating, Flatsedge ([2]; Rate 125 g/ha) | Plant response rating, Johnsongrass [11, 17] | Plant response rating, Johnsongrass [11, 20] | Plant response rating, Nightshade (Nightshade; Rate 31 g/ha, scale 0 to 100)
90: Plant response rating, Sunflower (Sunflower) | Ducksalad plant response rating ([1]; Rate 500 g/ha) | Barnyardgrass plant response rating ([3]; Rate 500 g/ha) | Plant response rating, Soybean (soybean (Glycine max); [17]) | Plant response rating, Soybean (soybean (Glycine max); [20]) | Plant response rating, Cupgrass, Woolly [12, 17] | Plant response rating, Cupgrass, Woolly [12, 19] | Plant response rating, Kochia (kochia (Kochia scoparia); [18]) | Plant response rating, Nightshade (Nightshade; Rate 62 g/ha, scale 0 to 100)
0: Plant response rating, Ducksalad ([1]; Rate 62 g/ha) | Plant response rating, Ducksalad ([1]; Rate 125 g/ha) | Rice plant response rating (rice (Oryza saliva); Rate 250 g/ha) | Plant response rating, Rice (rice (Oryza saliva); Rate 62 g/ha) | Plant response rating, Rice (rice (Oryza saliva); Rate 125 g/ha) | Plant response rating, Barnyardgrass ([3]; Rate 62 g/ha) | Plant response rating, Barnyardgrass ([3]; Rate 125 g/ha) | Plant response rating, Wild Oat (wild oat (Avena fatua); [13]) | Plant response rating, Wild Oat (wild oat (Avena fatua); [14]) | Plant response rating, Wild Oat (wild oat (Avena fatua); [15]) | Plant response rating, Corn (corn (Zea mays) [4]; [13]) | Plant response rating, Corn (corn (Zea mays) [4]; [16]) | Plant response rating, Corn (corn (Zea mays) [4]; [14]) | Plant response rating, Corn (corn (Zea mays) [4]; [15]) | Plant response rating, Wheat [5, 13] | Plant response rating, Wheat [5, 14] | Plant response rating, Wheat [5, 15] | Plant response rating, Barnyardgrass [6, 13] | Plant response rating, Barnyardgrass [6, 16] | Plant response rating, Barnyardgrass [6, 14] | Plant response rating, Barnyardgrass [6, 15] | Plant response rating, Corn (corn (Zea mays) [7]; [17]) | Plant response rating, Corn (corn (Zea mays) [7]; [18]) | Plant response rating, Corn (corn (Zea mays) [7]; [19]) | Plant response rating, Corn (corn (Zea mays) [7]; [20]) | Plant response rating, Nutsedge [8, 17] | Plant response rating, Nutsedge [8, 18] | Plant response rating, Nutsedge [8, 19] | Plant response rating, Nutsedge [8, 20] | Plant response rating, Johnsongrass [11, 18]
10: Plant response rating, Johnsongrass [11, 19] | Plant response rating, Cupgrass, Woolly [12, 18]
40: Plant response rating, Flatsedge ([2]; Rate 62 g/ha)

COC(=O)c1cccc(N2CCC(n3ccc(C(C)(C)C)n3)C2=O)c1 (stereo not shown) [Compound 73]
70: Plant response rating, Sunflower (Sunflower) | Plant response rating, Ducksalad ([1]; Rate 62 g/ha) | Plant response rating, Barnyardgrass ([3]; Rate 125 g/ha) | Plant response rating, Soybean (soybean (Glycine max); [20])
40: Plant response rating, Corn (corn (Zea mays) [4]; [15]) | Plant response rating, Soybean (soybean (Glycine max); [17]) | Plant response rating, Pigweed [10, 20]
20: Plant response rating, Rice (rice (Oryza saliva); Rate 125 g/ha) | Plant response rating, Johnsongrass [11, 13] | Plant response rating, Cupgrass, Woolly [12, 18] | Plant response rating, Kochia (kochia (Kochia scoparia); [18])
0: Plant response rating, Rice (rice (Oryza saliva); Rate 62 g/ha) | Plant response rating, Wild Oat (wild oat (Avena fatua); [16]) | Plant response rating, Wild Oat (wild oat (Avena fatua); [15]) | Plant response rating, Wheat [5, 16] | Plant response rating, Wheat [5, 15] | Plant response rating, Soybean (soybean (Glycine max); [18]) | Plant response rating, Corn (corn (Zea mays) [7]; [13]) | Plant response rating, Corn (corn (Zea mays) [7]; [17]) | Plant response rating, Corn (corn (Zea mays) [7]; [18]) | Plant response rating (0 to 100), Corn (corn (Zea mays) [7]; [22]) | Plant response rating, Nutsedge [8, 13] | Plant response rating, Nutsedge [8, 18] | Plant response rating, Pigweed [10, 17] | Plant response rating, Pigweed [10, 18] | Plant response rating, Johnsongrass [11, 18]
90: Plant response rating, Ducksalad ([1]; Rate 125 g/ha) | Plant response rating, Flatsedge ([2]; Rate 62 g/ha) | Plant response rating, Barnyardgrass [6, 15]
50: Rice plant response rating (rice (Oryza saliva); Rate 250 g/ha) | Plant response rating, Nutsedge [8, 20] | Plant response rating (0 to 100), Johnsongrass [11, 22] | Plant response rating, Nightshade (Nightshade; Rate 31 g/ha, scale 0 to 100)
60: Rice plant response rating (rice (Oryza saliva); Rate 500 g/ha) | Plant response rating, Cupgrass, Woolly [12, 13] | Plant response rating, Nightshade (Nightshade; [13])
80: Plant response rating, Cupgrass, Woolly [12, 17] | Plant response rating, Kochia (kochia (Kochia scoparia); [13]) | Plant response rating, Nightshade (Nightshade; [17])
100: Ducksalad plant response rating ([1]; Rate 250 g/ha) | Ducksalad plant response rating ([1]; Rate 500 g/ha) | Flatsedge plant response rating ([2]; Rate 250 g/ha) | Flatsedge plant response rating ([2]; Rate 500 g/ha) | Plant response rating, Flatsedge ([2]; Rate 125 g/ha) | Barnyardgrass plant response rating ([3]; Rate 250 g/ha) | Barnyardgrass plant response rating ([3]; Rate 500 g/ha) | Plant response rating (0 to 100), Cupgrass, Woolly [12, 22] | Plant response rating, Kochia (kochia (Kochia scoparia); [17]) | Plant response rating (0 to 100), Kochia (kochia (Kochia scoparia); [22]) | Plant response rating, Nightshade (Nightshade; [21])
30: Plant response rating, Barnyardgrass ([3]; Rate 62 g/ha) | Plant response rating, Corn (corn (Zea mays) [4]; [16]) | Plant response rating, Barnyardgrass [6, 16] | Plant response rating, Nutsedge [8, 17] | Plant response rating, Johnsongrass [11, 17]

CC(C)OC(=O)c1cccc(N2CCC(n3ccc(C(C)(C)C)n3)C2=O)c1 (stereo not shown) [Compound 124]
60: Plant response rating, Cupgrass, Woolly [12, 20] | Plant response rating, Kochia (kochia (Kochia scoparia); [17])
80: Ducksalad plant response rating ([1]; Rate 500 g/ha)
30: Flatsedge plant response rating ([2]; Rate 250 g/ha) | Plant response rating, Johnsongrass [11, 20] | Plant response rating, Cupgrass, Woolly [12, 19]
40: Ducksalad plant response rating ([1]; Rate 250 g/ha) | Plant response rating, Kochia (kochia (Kochia scoparia); [19])
0: Plant response rating, Sunflower (Sunflower) | Plant response rating, Ducksalad ([1]; Rate 62 g/ha) | Rice plant response rating (rice (Oryza saliva); Rate 250 g/ha) | Rice plant response rating (rice (Oryza saliva); Rate 500 g/ha) | Plant response rating, Rice (rice (Oryza saliva); Rate 62 g/ha) | Plant response rating, Rice (rice (Oryza saliva); Rate 125 g/ha) | Plant response rating, Flatsedge ([2]; Rate 62 g/ha) | Barnyardgrass plant response rating ([3]; Rate 250 g/ha) | Barnyardgrass plant response rating ([3]; Rate 500 g/ha) | Plant response rating, Barnyardgrass ([3]; Rate 62 g/ha) | Plant response rating, Barnyardgrass ([3]; Rate 125 g/ha) | Plant response rating, Wild Oat (wild oat (Avena fatua); [17]) | Plant response rating, Corn (corn (Zea mays) [4]; [17]) | Plant response rating, Corn (corn (Zea mays) [4]; [15]) | Plant response rating, Wheat [5, 17] | Plant response rating, Barnyardgrass [6, 17] | Plant response rating, Barnyardgrass [6, 15] | Plant response rating, Soybean (soybean (Glycine max); [17]) | Plant response rating, Soybean (soybean (Glycine max); [18]) | Plant response rating, Soybean (soybean (Glycine max); [19]) | Plant response rating, Soybean (soybean (Glycine max); [20]) | Plant response rating, Corn (corn (Zea mays) [7]; [17]) | Plant response rating, Corn (corn (Zea mays) [7]; [18]) | Plant response rating, Corn (corn (Zea mays) [7]; [19]) | Plant response rating, Corn (corn (Zea mays) [7]; [20]) | Plant response rating, Nutsedge [8, 17] | Plant response rating, Nutsedge [8, 18] | Plant response rating, Nutsedge [8, 19] | Plant response rating, Nutsedge [8, 20] | Plant response rating, Pigweed [10, 17] | Plant response rating, Pigweed [10, 18] | Plant response rating, Pigweed [10, 19] | Plant response rating, Johnsongrass [11, 18] | Plant response rating, Cupgrass, Woolly [12, 18] | Plant response rating, Kochia (kochia (Kochia scoparia); [18]) | Plant response rating, Nightshade (Nightshade; Rate 31 g/ha, scale 0 to 100) | Plant response rating, Nightshade (Nightshade; Rate 62 g/ha, scale 0 to 100)
45: Plant response rating, Lambsquarters [9, 18]
100: Plant response rating, Lambsquarters [9, 17] | Plant response rating, Lambsquarters [9, 20] | Plant response rating, Nightshade (Nightshade; [21])
15: Plant response rating, Johnsongrass [11, 19]
90: Flatsedge plant response rating ([2]; Rate 500 g/ha) | Plant response rating, Kochia (kochia (Kochia scoparia); [20])
20: Plant response rating, Ducksalad ([1]; Rate 125 g/ha) | Plant response rating, Flatsedge ([2]; Rate 125 g/ha) | Plant response rating, Johnsongrass [11, 17] | Plant response rating, Nightshade (Nightshade; [17])
50: Plant response rating, Lambsquarters [9, 19] | Plant response rating, Pigweed [10, 20] | Plant response rating, Cupgrass, Woolly [12, 17]
